The supplement of paper PMC10307832

How the values were obtained:
Assay in all cases: relative viability (nuclei count vs DMSO), 5 days (fraction); higher = more cells survive
Doxorubicin + Linsitinib = compound: COc1cccc2c1C(=O)c1c(O)c3c(c(O)c1C2=O)C[C@@](O)(C(=O)CO)C[C@@H]3O[C@H]1C[C@H](N)[C@H](O)[C@H](C)O1 [Doxorubicin] + C[C@]1(O)C[C@@H](c2nc(-c3ccc4ccc(-c5ccccc5)nc4c3)c3c(N)nccn32)C1 [Linsitinib] (partner 1 µM)
Outline: (§1)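 Lung cancer cell lines in 1536-well plates got either a single drug or a fixed anchor-drug dose together with five library-drug doses (not always all listed) in √10 steps, by pin tool, on the day after seeding. Nuclei were counted after 5 days, and relative viability is the treated-to-vehicle ratio of nuclei counts. Values are medians of duplicate plates.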

BAY61-3606 + Alpelisib = compound: COC1=C(C=C(C=C1)C2=CC3=NC=CN3C(=N2)NC4=C(C=CC=N4)C(=O)N)OC [BAY61-3606] + Cc1nc(NC(=O)N2CCC[C@H]2C(N)=O)sc1-c1ccnc(C(C)(C)C(F)(F)F)c1 [Alpelisib] (partner 2 µM)
Outline: as §1

[1] = compound: COc1cccc2c1C(=O)c1c(O)c3c(c(O)c1C2=O)C[C@@](O)(C(=O)CO)C[C@@H]3O[C@H]1C[C@H](N)[C@H](O)[C@H](C)O1 [Doxorubicin] + CC(=O)c1c(C)c2cnc(Nc3ccc(N4CCNCC4)cn3)nc2n(C2CCCC2)c1=O [Palbociclib] (partner 0.5 µM)
Outline: as §1

Doxorubicin + Navitoclax = compound: COc1cccc2c1C(=O)c1c(O)c3c(c(O)c1C2=O)C[C@@](O)(C(=O)CO)C[C@@H]3O[C@H]1C[C@H](N)[C@H](O)[C@H](C)O1 [Doxorubicin] + CC1(C)CCC(c2ccc(Cl)cc2)=C(CN2CCN(c3ccc(C(=O)NS(=O)(=O)c4ccc(N[C@H](CCN5CCOCC5)CSc5ccccc5)c(S(=O)(=O)C(F)(F)F)c4)cc3)CC2)C1 [Navitoclax] (partner 0.5 µM)
Outline: as §1

UMC-11 showed a relative viability (Doxorubicin + Linsitinib; first compound 0.001 µM) of 1.1, a relative viability (Doxorubicin + Linsitinib; first compound 0.003162 µM) of 1.13 and a relative viability (Doxorubicin + Linsitinib; first compound 0.01 µM) of 1.09. It also gave a relative viability (Doxorubicin + Linsitinib; first compound 0.03162 µM) of 0.803, a relative viability (Doxorubicin + Linsitinib; first compound 0.1 µM) of 0.875 and a relative viability (BAY61-3606 + Alpelisib; first compound 0.02 µM) of 1.01. For the same cell line, the relative viability (BAY61-3606 + Alpelisib; first compound 0.06325 µM) was 1.09, the relative viability (BAY61-3606 + Alpelisib; first compound 0.2 µM) was 1.08 and the relative viability (BAY61-3606 + Alpelisib; first compound 0.6325 µM) was 0.973. It also gave a relative viability (BAY61-3606 + Alpelisib; first compound 2 µM) of 0.912, a relative viability ([1]; first compound 0.001 µM) of 0.378 and a relative viability ([1]; first compound 0.003162 µM) of 0.339. For the same cell line, the relative viability ([1]; first compound 0.01 µM) was 0.314, the relative viability ([1]; first compound 0.03162 µM) was 0.256 and the relative viability ([1]; first compound 0.1 µM) was 0.325. The relative viability (Doxorubicin + Navitoclax; first compound 0.001 µM) was 0.414, the relative viability (Doxorubicin + Navitoclax; first compound 0.003162 µM) was 0.306 and the relative viability (Doxorubicin + Navitoclax; first compound 0.01 µM) was 0.323. For the same cell line, the relative viability (Doxorubicin + Navitoclax; first compound 0.03162 µM) was 0.229 and the relative viability (Doxorubicin + Navitoclax; first compound 0.1 µM) was 0.366.
